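Step 1: Grow cells in 96-well plates. Step 2: Expose to compound for 48 hours at 5 concentrations. Step 3: Interpolate endpoints linearly; if unreached, use highest concentration. GI50 marks 50% less growth. TGI: total growth inhibition.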
Assays:
Experiment in all cases: NCI-60 cell line screen, 48 h
HOP-92 NSCLC = tested on: HOP-92 NSCLC
HCT-116 colon = tested on: HCT-116 colon
SK-MEL-5 melanoma = tested on: SK-MEL-5 melanoma
UO-31 renal = tested on: UO-31 renal
OVCAR-4 ovarian = tested on: OVCAR-4 ovarian
NCI/ADR-RES ovarian = tested on: NCI/ADR-RES ovarian
HCT-15 colon = tested on: HCT-15 colon
KM12 colon = tested on: KM12 colon
HT29 colon = tested on: HT29 colon
RXF 393 renal = tested on: RXF 393 renal
NCI-H460 lung = tested on: NCI-H460 lung
COLO 205 colon = tested on: COLO 205 colon
UACC-62 melanoma = tested on: UACC-62 melanoma
CAKI-1 renal = tested on: CAKI-1 renal
MDA-MB-231 breast = tested on: MDA-MB-231 breast
SK-OV-3 ovarian = tested on: SK-OV-3 ovarian
SR leukemia = tested on: SR leukemia
SF-295 CNS = tested on: SF-295 CNS
LOX IMVI melanoma = tested on: LOX IMVI melanoma
786-0 renal = tested on: 786-0 renal
OVCAR-8 ovarian = tested on: OVCAR-8 ovarian
SK-MEL-28 melanoma = tested on: SK-MEL-28 melanoma
DU-145 prostate = tested on: DU-145 prostate
HCC-2998 colon = tested on: HCC-2998 colon
HOP-62 NSCLC = tested on: HOP-62 NSCLC
SW-620 colon = tested on: SW-620 colon
K-562 leukemia = tested on: K-562 leukemia

SMILES: COc1ccc(N2CCN(C3=C(Cl)C(=O)c4ncccc4C3=O)CC2)cc1
- GI50 (HOP-92 NSCLC): 1.49 µM
- TGI (HOP-92 NSCLC): 3.03 µM
- GI50 (HCT-116 colon): 1.92 µM
- TGI (HCT-116 colon): 3.85 µM
- GI50 (SK-MEL-5 melanoma): 12.8 µM
- TGI (SK-MEL-5 melanoma): 25.5 µM
- GI50 (UO-31 renal): 2 µM
- TGI (UO-31 renal): 6.83 µM
- GI50 (OVCAR-4 ovarian): 2.18 µM
- TGI (OVCAR-4 ovarian): 5.36 µM
- GI50 (NCI/ADR-RES ovarian): 6.74 µM
- TGI (NCI/ADR-RES ovarian): 28.6 µM
- GI50 (HCT-15 colon): 2.66 µM
- TGI (HCT-15 colon): 11.3 µM
- GI50 (KM12 colon): 18.4 µM
- TGI (KM12 colon): 34.7 µM
- GI50 (HT29 colon): 4.71 µM
- TGI (HT29 colon): 18.2 µM
- GI50 (RXF 393 renal): 2.61 µM
- TGI (RXF 393 renal): 8.37 µM
- GI50 (NCI-H460 lung): 5.86 µM
- TGI (NCI-H460 lung): 19.9 µM
- GI50 (COLO 205 colon): 2.01 µM
- TGI (COLO 205 colon): 4.04 µM
- GI50 (UACC-62 melanoma): 5.99 µM
- TGI (UACC-62 melanoma): 19.3 µM
- GI50 (CAKI-1 renal): 4.72 µM
- TGI (CAKI-1 renal): 17.1 µM
- GI50 (MDA-MB-231 breast): 1.66 µM
- TGI (MDA-MB-231 breast): 3.26 µM
- GI50 (SK-OV-3 ovarian): 12.2 µM
- TGI (SK-OV-3 ovarian): 25.2 µM
- GI50 (SR leukemia): 2.27 µM
- TGI (SR leukemia): 6.59 µM
- GI50 (SF-295 CNS): 13.9 µM
- TGI (SF-295 CNS): 28.3 µM
- GI50 (LOX IMVI melanoma): 1.75 µM
- TGI (LOX IMVI melanoma): 3.56 µM
- GI50 (786-0 renal): 15.9 µM
- TGI (786-0 renal): 29.5 µM
- GI50 (OVCAR-8 ovarian): 4.87 µM
- TGI (OVCAR-8 ovarian): 17.9 µM
- GI50 (SK-MEL-28 melanoma): 3.8 µM
- TGI (SK-MEL-28 melanoma): 13.2 µM
- GI50 (DU-145 prostate): 5.93 µM
- TGI (DU-145 prostate): 18.4 µM
- GI50 (HCC-2998 colon): 11.7 µM
- TGI (HCC-2998 colon): 26.5 µM
- GI50 (HOP-62 NSCLC): 19.1 µM
- TGI (HOP-62 NSCLC): 38 µM
- GI50 (SW-620 colon): 1.63 µM
- TGI (SW-620 colon): 3.79 µM
- GI50 (K-562 leukemia): 3.03 µM
